Experimental data: PMC7214591, “Biotransformation of 5-hydroxymethylfurfural into 2,5-dihydroxymethylfuran by Ganoderma sessile and toxicological assessment of both compounds” (AMB Express, 2020)

Assays:
[1] = Cytotoxicity test, CCK-8, 24 h; assay type: cell-based; conditions: human, HCT-8 cells
Experimental: (§1) Cell lines HCT-8 (3111C0001CCC000104) and A549 (3131C0001000700150) were obtained from National Infrastructure of Cell Line Resource (Beijing, China). SGC-7901 cell line was purchased from Suer Shengwu (Shanghai, China). All cells maintained in a humidified atmosphere at 37 °C and 5% CO2 in RPMI 1640 supplemented with 10% FBS and 1% Penicillin–Streptomycin solution. Cells were seeded in 96-well plates at a density of 8 * 10^3 cells per well and then incubated with various concentrations of 5-HMF and DHMF (Additional file 2: Table S2) for 24 h, respectively. Subsequently, culture supernatant was removed. HCT-8 cells were incubated in 100 μL fresh basal medium and 10 μL CCK-8 solution at 37 ℃ for 2 h. The optical density (OD) value of each well was measured at 450 nm using spectrophotometer (Multiskan Go 1510, Thermo, US); A549 and SGC-7901 cells were incubated in 100 μL MTT solution (1 mg/mL) at 37 ℃ for 4 h. Subsequently, the liquid was removed and dissolved the formazan with 150 μL DMSO, and the OD value was measured at 490 nm. Cell viability was given in a percentage of the control group. All data repeated for three times.

[2] = Cytotoxicity test, MTT, 24 h; assay type: cell-based; conditions: human
Experimental: as §1

[3] = tested on: Female Sprague–Dawley rats; assay: Acute oral toxicity assessment (OECD 423)
Experimental: The temperature in the experimental animal room was 22 ± 1 °C and the relative humidity was 60% ± 5%, additionally, lighting conditions was 12-h light/dark cycle.
Twenty-four rats were randomly divided into five groups. Six rats were in the control group as well as the high-dose groups, and three rats were in the low-dose groups. Before the experiment, all rats needed to be […] overnight. Briefly, the control group received distilled water while experimental groups were orally treated with test compounds at a single dose of 300 mg/kg 5-HMF, 300 mg/kg DHMF, 2000 mg/kg 5-HMF, and 2000 mg/kg DHMF, respectively. The animals were monitored periodically during the first 24 h, especially the opening 30 min and 4 h, after drug oral treatment for any signs of toxicity. The rats were further observed for 14 days. Moreover, the body weight was measured at the first and last day. At the end of experiment, all rats were anaesthetized and their brains, hearts, lungs, livers, kidneys, and spleens were collected, weighed and observed macroscopically.

[4] = tested on: mice; set-up: method as in Bauer Marinovic et al. [2012]; conditions: dose up to 536 mg/kg, drinking water for 12 weeks, ref Bauer Marinovic et al. [2012]; cited from earlier work
[5] = tested on: human skin fibroblast cells; set-up: method as in Frade et al. [2014]; conditions: ref Frade et al. [2014]; cited from earlier work
[6] = rats, 300 mg/kg single oral dose, after 14 days, n = 3
[7] = rats, 2000 mg/kg single oral dose, after 14 days, n = 6

SMILES: O=Cc1ccc(CO)o1 [5-HMF, 5-hydroxymethylfurfural]
- IC50 at 24 h [1]: 9.94 mM
- IC50 at 24 h ([2]; A549 cells): 7.14 mM
- IC50 at 24 h ([2]; SGC-7901 cells): 8.42 mM
- Abnormal behaviours ([3]; female, Sprague-Dawley, rat, in vivo, po, 300 mg/kg): During the first 30 min, all rats became quitter and slightly weaker than the control, and returned to normal within 1 h
- Abnormal behaviours ([3]; female, Sprague-Dawley, rat, in vivo, po, 2000 mg/kg): Rat numbered 1 emerged convulsions, lethargy, convulsions, and limb weakness during the first 30 min, showed somnolence and decrease of animal heat in the next 30 min; others only behaved a quiet symptom, all rats returned to normal within 1 h
- LD50 cut-off ([3]; rat, in vivo, po, 300 mg/kg): greater than 2000 mg/kg B.W.
- Organs index, Brain ([3]; rat, in vivo, po, 300 mg/kg): 0.74 ± 0.02 g/100 g of body weight
- Organs index, Heart ([3]; rat, in vivo, po, 300 mg/kg): 0.35 ± 0.03 g/100 g of body weight
- Organs index, Kidney ([3]; rat, in vivo, po, 300 mg/kg): 0.75 ± 0.06 g/100 g of body weight
- Organs index, Liver ([3]; rat, in vivo, po, 300 mg/kg): 3.06 ± 0.19 g/100 g of body weight
- Organs index, Lung ([3]; rat, in vivo, po, 300 mg/kg): 0.52 ± 0.02 g/100 g of body weight
- Organs index, Spleen ([3]; rat, in vivo, po, 300 mg/kg): 0.25 ± 0.01 g/100 g of body weight
- Organs index, Brain ([3]; rat, in vivo, po, 2000 mg/kg): 0.74 ± 0.05 g/100 g of body weight
- Organs index, Heart ([3]; rat, in vivo, po, 2000 mg/kg): 0.33 ± 0.02 g/100 g of body weight
- Organs index, Kidney ([3]; rat, in vivo, po, 2000 mg/kg): 0.75 ± 0.07 g/100 g of body weight
- Organs index, Liver ([3]; rat, in vivo, po, 2000 mg/kg): 2.83 ± 0.09 g/100 g of body weight
- Organs index, Lung ([3]; rat, in vivo, po, 2000 mg/kg): 0.51 ± 0.04 g/100 g of body weight
- Organs index, Spleen ([3]; rat, in vivo, po, 2000 mg/kg): 0.25 ± 0.06 g/100 g of body weight
- Mortality ([3]; rats, single oral dose 300 or 2000 mg/kg, 14-day observation): none of the rats died
- Nephrotoxic effects [4]: mild nephrotoxic effects
- Cytotoxicity [5]: none cytotoxic

SMILES: OCc1ccc(CO)o1 [DHMF, 2,5-dihydroxymethylfuran]
- IC50 at 24 h [1]: 26.6 mM
- IC50 at 24 h ([2]; A549 cells): 0.697 mM
- IC50 at 24 h ([2]; SGC-7901 cells): 0.33 mM
- Organs index, Brain [3, 6]: 0.68 ± 0.09 g/100 g of body weight
- Organs index, Heart [3, 6]: 0.32 ± 0.02 g/100 g of body weight
- Organs index, Kidney [3, 6]: 0.75 ± 0.07 g/100 g of body weight
- Organs index, Liver [3, 6]: 3.04 ± 0.26 g/100 g of body weight
- Organs index, Lung [3, 6]: 0.47 ± 0.01 g/100 g of body weight
- Organs index, Spleen [3, 6]: 0.22 ± 0.04 g/100 g of body weight
- Organs index, Brain [3, 7]: 0.79 ± 0.07 g/100 g of body weight
- Organs index, Heart [3, 7]: 0.32 ± 0.04 g/100 g of body weight
- Organs index, Kidney [3, 7]: 0.75 ± 0.06 g/100 g of body weight
- Organs index, Liver [3, 7]: 3.05 ± 0.17 g/100 g of body weight
- Organs index, Lung [3, 7]: 0.49 ± 0.03 g/100 g of body weight
- Organs index, Spleen [3, 7]: 0.22 ± 0.02 g/100 g of body weight
- Abnormal behaviours ([3]; rats, single oral dose 300 mg/kg, first 4 h, n = 3): During the first 30 min, all rats became quitter and slightly weaker than the control, and returned to normal within 1 h
- Abnormal behaviours ([3]; rats, single oral dose 2000 mg/kg, first 4 h, n = 6): In the first 30 min, all rats were more active than control, then showed lethargic and dilatoriness, yet returned to normal after 30 min
- LD50 cut-off ([3]; rats, single oral dose, OECD 423 annex 2c, starting dose 300 mg/kg): greater than 2000 mg/kg B.W.
